The values that follow come from PubChem BioAssay (NCI).

Holding throughout (assay): NCI anticancer screen, dose series, 48 h
In experiment [1] the test system is K-562 leukemia.
Experiment [2] relates to MCF7 breast.
For experiment [3], the system named is SNB-75 CNS.
Experiment [4] relates to DU-145 prostate.
For experiment [5], the system named is A498 renal.
The test system of experiment [6] is SW-620 colon.
For experiment [7], the system named is COLO 205 colon.
The subject of experiment [8] is PC-3 prostate.

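Grown in 96-well plates, cells were treated for 48 hours with each compound at five concentrations. Insufficient inhibition: endpoint recorded as highest concentration tested. Abbreviation: GI50, concentration required for 50% inhibition of growth. Definition used: TGI = concentration required for complete inhibition of growth.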

Consider `O=C1NC(O)C(c2c[nH]c3ccccc23)=C1c1c[nH]c2ccccc12` (stereo unspecified), for which the GI50 was more than 21.9 µM in experiment [1]; more than 25 µM in experiment [2]; more than 25 µM in experiment [3]; more than 25 µM in experiment [4]; more than 25 µM in experiment [5]; more than 25 µM in experiment [6]. Also, the GI50 in experiment [7] is more than 25 µM; in experiment [8] it was 24.8 µM. Further, the TGI in experiment [1], in experiment [2], in experiment [3], in experiment [4], in experiment [5] and in experiment [6] was more than 25 µM in each case. In addition, the TGI in experiment [7] and in experiment [8] was more than 25 µM throughout.
For `O=C(CNc1ccc2c(c1)C(=O)c1ccccc1C2=O)Nc1ccc2c(c1)C(=O)c1ccccc1C2=O`, the GI50 in experiment [2] was 0.809 µM; in experiment [3], 1.79 µM; in experiment [4] it was 1.53 µM; in experiment [5], 1.62 µM; in experiment [6], 0.186 µM; in experiment [7], 1.26 µM. Further, the GI50 in experiment [8] was 1.29 µM. Also, the TGI in experiment [2] amounted to 2.6 µM; in experiment [3], 4.3 µM; in experiment [4], 2.87 µM; in experiment [5] it was 3.16 µM; in experiment [6], 0.371 µM; in experiment [7] it was 2.94 µM. Also, the TGI in experiment [8] was determined as 3.48 µM.
Consider `COc1ccc(/C=C/C(=O)c2ccc(SC)cc2)cc1OC`, for which the GI50 in experiment [1] was 4.09 µM; in experiment [2], more than 100 µM; in experiment [3], 17 µM; in experiment [4] it was 13.4 µM; in experiment [6], 4.44 µM; in experiment [7] it was 21 µM. In experiment [8], the GI50 is 11.5 µM. Further, the TGI in experiment [1] is 33.8 µM; in experiment [2], more than 100 µM; in experiment [3], 37.2 µM; in experiment [4] it was 30.9 µM; in experiment [6] it was more than 100 µM; in experiment [7] it was more than 100 µM. For the same molecule, in experiment [8], the TGI came to 25.6 µM.
With `O=c1nc2n(-c3ccc(Cl)cc3)c3ccc([N+](=O)[O-])cc3cc-2c(=O)[nH]1`, the GI50 in experiment [1] is 32.6 µM; in experiment [3], more than 100 µM; in experiment [4], 29.1 µM; in experiment [5], 33.2 µM; in experiment [6], 6.11 µM; in experiment [7], 13.2 µM. Moreover, the GI50 in experiment [8] was 23.5 µM. Further, the TGI in experiment [1] is more than 100 µM; in experiment [3], more than 100 µM; in experiment [4] it was 79.5 µM; in experiment [5], more than 100 µM; in experiment [6], more than 100 µM; in experiment [7], 31.8 µM. In addition, the TGI in experiment [8] worked out at 78.5 µM.
For the molecule `CCCc1cc2c(=O)c(C(=O)OC)c[nH]c2cc1N(CC)CC`, the GI50 in experiment [1] is 80.5 µM; in experiment [2], 73.6 µM; in experiment [3] it was 18.6 µM; in experiment [4], 20.2 µM; in experiment [5], 82.3 µM; in experiment [6], 45.6 µM. Further, the GI50 in experiment [7] is 46.5 µM; in experiment [8] it was 23.3 µM. Moreover, the TGI in experiment [1] is more than 100 µM; in experiment [2], more than 100 µM; in experiment [3], 46.3 µM; in experiment [4], 49.6 µM; in experiment [5], more than 100 µM; in experiment [6], more than 100 µM. Further, the TGI in experiment [7] and in experiment [8] was more than 100 µM throughout.
As to `CC1(C)N=C(N)N=C(N)N1c1ccc(OCCCCOc2ccc(S(=O)(=O)F)cc2)c(Cl)c1`, the GI50 in experiment [1] is 0.0597 µM; in experiment [2], 0.13 µM; in experiment [3] it was 0.737 µM; in experiment [4] it was 0.194 µM; in experiment [5] it was 1.1 µM; in experiment [6], 0.0379 µM. Moreover, the GI50 in experiment [7] was 0.137 µM; in experiment [8], 0.064 µM. Moreover, the TGI in experiment [1] amounted to 15.8 µM; in experiment [2] it was 13 µM; in experiment [3], 17.1 µM; in experiment [4] it was 16 µM; in experiment [5], 19.9 µM; in experiment [6], 14 µM. In addition, the TGI in experiment [7] was 15.5 µM; in experiment [8], 11 µM.
As for `NC(N)=N/N=C\c1cccc(OCc2ccccc2)c1`, the GI50 in experiment [1] was 3.87 µM; in experiment [2], 1.77 µM; in experiment [3], 7.03 µM; in experiment [4], 11.4 µM; in experiment [5] it was 11.4 µM; in experiment [6] it was 1.68 µM. Moreover, the results for the GI50 in experiment [7] and in experiment [8] were 1.78 µM and 11.2 µM, respectively. For the same molecule, the TGI in experiment [1] is 16.1 µM; in experiment [2] it was 3.75 µM; in experiment [3], 23.4 µM; in experiment [4] it was 23.9 µM; in experiment [5] it was 23.5 µM; in experiment [6], 3.33 µM. Moreover, the values for the TGI in experiment [7] and in experiment [8] were 3.36 µM and 25.1 µM, respectively.
Consider `O=C(c1ccco1)c1nc2cc(Cl)ccc2[n+]([O-])c1C(F)(F)F`, for which the GI50 is 22.2 µM in experiment [1]; 41 µM in experiment [2]; 46 µM in experiment [3]; 76.5 µM in experiment [4]; more than 100 µM in experiment [5]; 39.1 µM in experiment [6]. Further, the results for the GI50 in experiment [7] and in experiment [8] were more than 100 µM and 13.7 µM, respectively. Moreover, the TGI was 54.3 µM in experiment [1]; more than 100 µM in experiment [2]; more than 100 µM in experiment [3]; more than 100 µM in experiment [4]; more than 100 µM in experiment [5]; more than 100 µM in experiment [6]. The TGI in experiment [7] was more than 100 µM; in experiment [8] it was 41.4 µM.
Regarding `O=C(Nc1cccc(Cl)c1)c1ccc(NC2=C(Cl)C(=O)N(Cc3ccccc3)C2=O)cc1`, the GI50 is 2.58 µM in experiment [1]; 3.19 µM in experiment [2]; 8.37 µM in experiment [4]; 34.4 µM in experiment [5]; 7.4 µM in experiment [6]; 22.1 µM in experiment [7]. Further, the GI50 in experiment [8] is 9.48 µM. In addition, the TGI was 8.69 µM in experiment [1]; 12.2 µM in experiment [2]; 19.2 µM in experiment [4]; 96.2 µM in experiment [5]; 19.7 µM in experiment [6]; more than 57 µM in experiment [7]. This molecule showed a TGI in experiment [8] of 24.1 µM.
